Data as given in PubChem BioAssay AID1963839 (Molecular Pharmacology Branch, DTP, NCI, 2024).
“And” between values parts separate entries of the source, which are not always exact repeats. Identical values can stand only once.

Test system: 817829-284-R-J1-PDC complex spheroid viability
Assay: Anticancer human tumor 817829-284-R-J1-PDC patient-derived colon adenocarcinoma cell line growth inhibition [POLQ]
Settings: for viability, T/C: stronger effect = lower value
Experimental: Multicellular complex tumor spheroid response to Polymerase (POL) inhibitors (novobiocin, ART-558, RP6685) in combination with a variety of drugs and investigational agents in selected tumor cell lines
The POL inhibitors (novobiocin, ART-558, and RP6685) were evaluated both individually and in combination with standard of care and investigational anticancer small molecules within a complex spheroid model of solid tumors. . Complex spheroids include a stromal component modeled by human endothelial cells (HUVEC) and fibroblasts modeled by human mesenchymal stem cells (MSCs). The concentration ranges selected for each drug and investigational agent were based upon clinically achievable concentrations if the clinical Cmax of the agent was known.
Compounds. The drugs and investigational agents: novobiocin (NSC847541), ART-558 (NSC835418), RP-6685 (NSC848927), peposertib (NSC802822), ceralasertib (NSC780249), elimusertib (NSC800525), camonsertib (NSC841442), AZD-1390 (NSC803789), olaparib (NSC753686), talazoparib (NSC767125), rucaparib (NSC756644), sotorasib (NSC818433), MRTX-1133 (NSC836407), SN-38 (NSC673596), topotecan (NSC609699), epotoside (NSC141540), doxorubicin (NSC123127), gemcitabine (NSC613327), 5-fluorouracil (NSC19893), paclitaxel (NSC125973), vemurafenib (NSC761431), MSA-2 (NSC828583), SN-011 (NSC837082), adavosertib (NSC754352), prexasertib (NSC758257), carboplatin (NSC241240) and oxaliplatin (NSC266046), were obtained from the National Cancer Institute (NCI) Developmental Therapeutics Program Chemical Repository (21). The FDA-approved anticancer drug set is available from the Developmental Therapeutics Program at https://dtp.cancer.gov/organization/dscb/obtaining/. […] The stock solutions were prepared in dimethyl sulfoxide (DMSO, Sigma-Aldrich, St. Louis, MO, cat. D2650), except for the platinum compounds which were prepared in saline (Quality Biological, Gaithersburg, MD, cat. 114-055-101), at 800-fold the tested concentration and stored at -70 degrees C prior to their use. All drugs and investigational agents were tested over a range starting from a high concentration at or near the clinical Cmax and decreasing in half-log increments. If the clinical Cmax for an agent had not been determined, the highest concentration tested was 10 microM, except for SN-38, which was tested at a high concentration of 1 microM.
Cell Culture. All cells were maintained in an incubator at 37 degrees C and 5% CO2 with 95% humidity. The PDC lines were cultured according to standard operating procedures established by the NCI PDMR (https://pdmr.cancer.gov). Table 3 of the manuscript, lists the cell lines along with the number of the three cell types plated to form the mct-spheroids and media for tumor cell growth. After thawing, all PDC lines, except 997537-175-T-J1-PDC and 415267-285-R-J2-PDC, were cultured in Matrigel-coated flasks prepared with a working solution of 1X Ham's F-12 nutrient mix, without supplementation (Thermo Fisher Scientific, cat. 11765054), 100 U/mL penicillin-streptomycin (Thermo Fisher Scientific, cat. 15140122), and 2.5% Matrigel (Corning Inc., Corning, NY, cat. 354248) for the first three passages. The two PDC lines 997537-175-T-J1-PDC and 415267-285-R-J2-PDC were cultured on uncoated flasks. The 857933-349-R-J2-PDC line was cultured in 6C/Colon 1B media containing advanced DMEM/F-12 (Thermo Fisher Scientific, cat. 12634028), 10 mM HEPES (Thermo Fisher Scientific, cat. 15630080), 1X GlutaMAX supplement (Thermo Fisher Scientific, cat. 35050061), 0.1 mg/mL primocin (InvivoGen, San Diego, CA, cat. ant-pm-2), 10% defined fetal bovine serum, heat inactivated (HyClone Laboratories Inc., Logan, UT, cat. SH30070.03HI), 50% L-WRN conditioned media (ATCC, cat. CRL-3276), 1.25 mM N-Acetyl-L-cysteine (Sigma-Aldrich, cat. A9165), 10 mM nicotinamide (Sigma-Aldrich, cat. N0636), 1X B-27 supplement (Thermo Fisher Scientific, cat. 17504044), 1X N-2 supplement (Thermo Fisher Scientific, cat. […]

[1] = curve of first compound, second compound 0.0316 µM
[2] = curve of first compound, second compound 0.1 µM
[3] = curve of first compound, second compound 0.316 µM
[4] = curve of first compound, second compound 1 µM
[5] = curve of first compound, second compound 3.16 µM
[6] = curve of first compound, second compound 10 µM
[7] = second compound 0.0316 µM, first compound 0.0316 µM
[8] = second compound 0.0316 µM, first compound 0.1 µM
[9] = second compound 0.0316 µM, first compound 0.316 µM
[10] = second compound 0.0316 µM, first compound 1 µM
[11] = second compound 0.0316 µM, first compound 3.16 µM
[12] = second compound 0.0316 µM, first compound 10 µM
[13] = second compound 0.1 µM, first compound 0.0316 µM
[14] = second compound 0.1 µM, first compound 0.1 µM
[15] = second compound 0.1 µM, first compound 0.316 µM
[16] = second compound 0.1 µM, first compound 1 µM
[17] = second compound 0.1 µM, first compound 3.16 µM
[18] = second compound 0.1 µM, first compound 10 µM
[19] = second compound 0.316 µM, first compound 0.0316 µM
[20] = second compound 0.316 µM, first compound 0.1 µM
[21] = second compound 0.316 µM, first compound 0.316 µM
[22] = second compound 0.316 µM, first compound 1 µM
[23] = second compound 0.316 µM, first compound 3.16 µM
[24] = second compound 0.316 µM, first compound 10 µM
[25] = second compound 1 µM, first compound 0.0316 µM
[26] = second compound 1 µM, first compound 0.1 µM
[27] = second compound 1 µM, first compound 0.316 µM
[28] = second compound 1 µM, first compound 1 µM
[29] = second compound 1 µM, first compound 3.16 µM
[30] = second compound 1 µM, first compound 10 µM
[31] = second compound 3.16 µM, first compound 0.0316 µM
[32] = second compound 3.16 µM, first compound 0.1 µM
[33] = second compound 3.16 µM, first compound 0.316 µM
[34] = second compound 3.16 µM, first compound 1 µM
[35] = second compound 3.16 µM, first compound 3.16 µM
[36] = second compound 3.16 µM, first compound 10 µM
[37] = second compound 10 µM, first compound 0.0316 µM
[38] = second compound 10 µM, first compound 0.1 µM
[39] = second compound 10 µM, first compound 0.316 µM
[40] = second compound 10 µM, first compound 1 µM
[41] = second compound 10 µM, first compound 3.16 µM
[42] = second compound 10 µM, first compound 10 µM
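Further: spheroids exposed to compounds for 7 days.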
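Wherever viability, T/C is given: 100% = DMSO vehicle-treated spheroids.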

CCCS(=O)(=O)Nc1ccc(F)c(C(=O)c2c[nH]c3ncc(-c4ccc(Cl)cc4)cc23)c1F + Nc1ccc(C#CCN(C(=O)Cc2ncc(C(F)(F)F)cc2C(F)(F)F)c2ccc(F)cc2)nn1
IC50 [1]: 4470 nM | IC50 [2]: 4540 nM | IC50 [3]: 3460 nM | IC50 [4]: 3750 nM | IC50 [5]: 4490 nM | IC50 [6]: 3680 nM | viability, T/C [7]: 90% | viability, T/C [8]: 75.5% | viability, T/C [9]: 93.2% | viability, T/C [10]: 91.3% | viability, T/C [11]: 67.2% | viability, T/C [12]: 9.94% | viability, T/C [13]: 90.4% | viability, T/C [14]: 55.9% | viability, T/C [15]: 81.7% | viability, T/C [16]: 74.7% | viability, T/C [17]: 68.2% | viability, T/C [18]: 10.4% | viability, T/C [19]: 85% | viability, T/C [20]: 85.4% | viability, T/C [21]: 83.2% | viability, T/C [22]: 75.8% | viability, T/C [23]: 53.2% | viability, T/C [24]: 11.5% | viability, T/C [25]: 84% | viability, T/C [26]: 76.7% | viability, T/C [27]: 88.2% | viability, T/C [28]: 66.3% | viability, T/C [29]: 58.6% | viability, T/C [30]: 13.9% | viability, T/C [31]: 95.2% | viability, T/C [32]: 62.6% | viability, T/C [33]: 78.7% | viability, T/C [34]: 84.2% | viability, T/C [35]: 66.1% | viability, T/C [36]: 13.2% | viability, T/C [37]: 88.9% | viability, T/C [38]: 64.8% | viability, T/C [39]: 75.8% | viability, T/C [40]: 75.9% | viability, T/C [41]: 55.6% | viability, T/C [42]: 13.6%

COc1cc(C2c3cc4c(cc3C(OC3OC5COC(C)OC5C(O)C3O)C3COC(=O)C23)OCO4)cc(OC)c1O (stereo not drawn) + COC1C(OC(N)=O)C(O)C(Oc2ccc3c(O)c(NC(=O)c4ccc(O)c(CC=C(C)C)c4)c(=O)oc3c2C)OC1(C)C
IC50 [1]: < 31.6 nM | IC50 [2]: 62.2 nM | IC50 [3]: 38.7 nM | IC50 [4]: 77.8 nM | IC50 [5]: 74.9 nM | IC50 [6]: 61.4 nM | viability, T/C [7]: 47.9% | viability, T/C [8]: 31.3% | viability, T/C [9]: 16.2% | viability, T/C [10]: 14.4% | viability, T/C [11]: 11.2% | viability, T/C [12]: 5.8% | viability, T/C [13]: 74.1% | viability, T/C [14]: 31.2% | viability, T/C [15]: 19.5% | viability, T/C [16]: 19.1% | viability, T/C [17]: 11.8% | viability, T/C [18]: 6.51% | viability, T/C [19]: 53.6% | viability, T/C [20]: 34.5% | viability, T/C [21]: 15.2% | viability, T/C [22]: 15.6% | viability, T/C [23]: 12.6% | viability, T/C [24]: 6.15% | viability, T/C [25]: 79.2% | viability, T/C [26]: 42.2% | viability, T/C [27]: 15.8% | viability, T/C [28]: 16.3% | viability, T/C [29]: 11.7% | viability, T/C [30]: 6.63% | viability, T/C [31]: 83.7% | viability, T/C [32]: 38.8% | viability, T/C [33]: 18.1% | viability, T/C [34]: 19.1% | viability, T/C [35]: 13.6% | viability, T/C [36]: 6.38% | viability, T/C [37]: 68.8% | viability, T/C [38]: 36.6% | viability, T/C [39]: 17.9% | viability, T/C [40]: 20.1% | viability, T/C [41]: 11.6% | viability, T/C [42]: 6.29%

CCc1c2c(nc3ccc(O)cc13)-c1cc3c(c(=O)n1C2)COC(=O)[C@]3(O)CC
viability, T/C (compound 0.00316 µM): 19.4% and 20.1% and 25.3% | viability, T/C (compound 0.01 µM): 16.5% and 16.4% and 16.3% | viability, T/C (compound 0.0316 µM): 13.7% and 12.4% and 11.8% | viability, T/C (compound 0.1 µM): 7.6% and 9.24% and 7.39% | viability, T/C (compound 0.316 µM): 6.4% and 5.1% and 5.47% | viability, T/C (compound 1 µM): 3.09% and 2.77% and 3.28% | IC50 (curve of compound): < 3.16 nM

COc1cccc2c1C(=O)c1c(O)c3c(c(O)c1C2=O)CC(O)(C(=O)CO)CC3OC1CC(N)C(O)C(C)O1 (stereo not drawn) + Cc1cccc(N(C)C(=O)C2C(O)CCN2c2nc(C)cc(C(F)(F)F)c2C#N)c1
IC50 [1]: < 31.6 nM | IC50 [2]: < 31.6 nM | IC50 [3]: < 31.6 nM | IC50 [4]: < 31.6 nM | IC50 [5]: < 31.6 nM | IC50 [6]: < 31.6 nM | viability, T/C [7]: 20.6% | viability, T/C [8]: 18.4% | viability, T/C [9]: 6.01% | viability, T/C [10]: 0.9% | viability, T/C [11]: 0.17% | viability, T/C [12]: 0.48% | viability, T/C [13]: 21.8% | viability, T/C [14]: 15.9% | viability, T/C [15]: 7.06% | viability, T/C [16]: 0.26% | viability, T/C [17]: 0.22% | viability, T/C [18]: 0.58% | viability, T/C [19]: 20.2% | viability, T/C [20]: 17.8% | viability, T/C [21]: 6.56% | viability, T/C [22]: 0.38% | viability, T/C [23]: 0.19% | viability, T/C [24]: 0.58% | viability, T/C [25]: 21.2% | viability, T/C [26]: 14.6% | viability, T/C [27]: 6.03% | viability, T/C [28]: 0.54% | viability, T/C [29]: 0.29% | viability, T/C [30]: 0.51% | viability, T/C [31]: 20.1% | viability, T/C [32]: 17.9% | viability, T/C [33]: 3.35% | viability, T/C [34]: 0.34% | viability, T/C [35]: 0.32% | viability, T/C [36]: 0.6% | viability, T/C [37]: 17.4% | viability, T/C [38]: 12.3% | viability, T/C [39]: 4.14% | viability, T/C [40]: 0.48% | viability, T/C [41]: 0.3% | viability, T/C [42]: 0.5%
